Drawing on patent publication US12479847B2 (DANA-FARBER CANCER INSTITUTE, INC., priority 2019, dated 2025), this text covers remaining binding for 3 compounds.

Holding throughout (test): KINOMEscan (ScanMAX) kinase profiling
Assay type in all cases: binding

For assay [1], the target named is T1, panel of 468 kinases (Homo sapiens, UniProt O00329).
T1 construct: purchased KINOMEscan (ScanMAX) service
T1 sequence (O00329 1-1044): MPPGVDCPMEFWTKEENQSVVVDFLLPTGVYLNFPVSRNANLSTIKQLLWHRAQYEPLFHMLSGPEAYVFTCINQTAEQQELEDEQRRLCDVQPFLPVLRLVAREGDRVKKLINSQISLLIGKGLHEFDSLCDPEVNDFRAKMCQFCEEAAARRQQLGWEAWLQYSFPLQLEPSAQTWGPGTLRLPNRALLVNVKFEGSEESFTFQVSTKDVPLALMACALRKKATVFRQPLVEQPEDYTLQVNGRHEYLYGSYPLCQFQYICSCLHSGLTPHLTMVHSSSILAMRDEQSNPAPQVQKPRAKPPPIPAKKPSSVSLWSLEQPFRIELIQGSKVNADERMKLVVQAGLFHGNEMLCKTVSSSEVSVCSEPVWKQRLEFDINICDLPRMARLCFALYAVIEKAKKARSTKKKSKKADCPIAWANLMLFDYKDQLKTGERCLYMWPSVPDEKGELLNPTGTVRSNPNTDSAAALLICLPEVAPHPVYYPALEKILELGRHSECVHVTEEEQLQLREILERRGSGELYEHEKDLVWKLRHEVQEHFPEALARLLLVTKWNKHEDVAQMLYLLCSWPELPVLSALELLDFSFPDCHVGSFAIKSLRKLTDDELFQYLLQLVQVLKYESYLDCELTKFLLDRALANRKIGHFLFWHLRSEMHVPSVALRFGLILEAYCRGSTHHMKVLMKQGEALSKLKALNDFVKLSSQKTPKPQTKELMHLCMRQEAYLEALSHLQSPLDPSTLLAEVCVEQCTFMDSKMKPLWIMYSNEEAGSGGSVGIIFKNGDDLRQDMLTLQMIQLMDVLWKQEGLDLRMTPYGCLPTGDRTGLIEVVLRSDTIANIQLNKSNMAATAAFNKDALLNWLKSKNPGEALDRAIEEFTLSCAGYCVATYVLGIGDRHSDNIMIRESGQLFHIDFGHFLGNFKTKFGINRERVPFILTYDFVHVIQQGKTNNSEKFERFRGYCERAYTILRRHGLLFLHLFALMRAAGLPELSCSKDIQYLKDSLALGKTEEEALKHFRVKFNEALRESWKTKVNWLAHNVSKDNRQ
Conditions: PIK3CD; 1 μM; read-out: % control.

Assay [2] concerns the target T2, panel of 468 kinases (Homo sapiens, UniProt Q05397).
T2 construct: purchased KINOMEscan (ScanMAX) service
Conditions: FAK; 1 μM; read-out: % control.

Assay [3] addresses T3, panel of 468 kinases (Homo sapiens, UniProt Q13237).
T3 construct: purchased KINOMEscan (ScanMAX) service
T3 sequence (Q13237 1-762): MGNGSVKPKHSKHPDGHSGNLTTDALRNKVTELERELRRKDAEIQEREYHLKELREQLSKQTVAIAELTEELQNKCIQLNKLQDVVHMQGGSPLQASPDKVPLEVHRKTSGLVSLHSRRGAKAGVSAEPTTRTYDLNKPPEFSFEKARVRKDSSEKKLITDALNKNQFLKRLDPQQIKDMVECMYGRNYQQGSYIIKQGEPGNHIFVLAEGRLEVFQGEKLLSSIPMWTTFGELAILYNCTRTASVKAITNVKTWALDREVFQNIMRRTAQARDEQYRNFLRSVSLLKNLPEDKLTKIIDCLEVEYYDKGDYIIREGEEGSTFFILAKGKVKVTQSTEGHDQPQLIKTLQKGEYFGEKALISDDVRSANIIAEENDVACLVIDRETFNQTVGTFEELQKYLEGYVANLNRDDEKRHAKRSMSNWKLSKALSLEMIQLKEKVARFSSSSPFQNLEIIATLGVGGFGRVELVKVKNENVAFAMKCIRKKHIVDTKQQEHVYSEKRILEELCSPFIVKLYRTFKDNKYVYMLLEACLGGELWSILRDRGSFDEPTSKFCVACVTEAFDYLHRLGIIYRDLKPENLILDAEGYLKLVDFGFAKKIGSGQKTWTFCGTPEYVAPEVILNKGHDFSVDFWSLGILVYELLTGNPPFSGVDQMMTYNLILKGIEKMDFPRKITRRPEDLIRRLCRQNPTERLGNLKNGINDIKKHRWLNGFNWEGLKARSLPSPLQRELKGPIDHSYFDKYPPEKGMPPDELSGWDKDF
Particulars: PRKG2; 1 μM; read-out: % control.

Assay [4] concerns the target T4, panel of 468 kinases (Homo sapiens, UniProt Q96NX5).
T4 construct: purchased KINOMEscan (ScanMAX) service
Conditions: CAMK1G; 1 μM; read-out: % control.

In assay [5] the target is T5, panel of 468 kinases (Homo sapiens, UniProt Q99759).
T5 construct: purchased KINOMEscan (ScanMAX) service
T5 sequence (Q99759 1-626): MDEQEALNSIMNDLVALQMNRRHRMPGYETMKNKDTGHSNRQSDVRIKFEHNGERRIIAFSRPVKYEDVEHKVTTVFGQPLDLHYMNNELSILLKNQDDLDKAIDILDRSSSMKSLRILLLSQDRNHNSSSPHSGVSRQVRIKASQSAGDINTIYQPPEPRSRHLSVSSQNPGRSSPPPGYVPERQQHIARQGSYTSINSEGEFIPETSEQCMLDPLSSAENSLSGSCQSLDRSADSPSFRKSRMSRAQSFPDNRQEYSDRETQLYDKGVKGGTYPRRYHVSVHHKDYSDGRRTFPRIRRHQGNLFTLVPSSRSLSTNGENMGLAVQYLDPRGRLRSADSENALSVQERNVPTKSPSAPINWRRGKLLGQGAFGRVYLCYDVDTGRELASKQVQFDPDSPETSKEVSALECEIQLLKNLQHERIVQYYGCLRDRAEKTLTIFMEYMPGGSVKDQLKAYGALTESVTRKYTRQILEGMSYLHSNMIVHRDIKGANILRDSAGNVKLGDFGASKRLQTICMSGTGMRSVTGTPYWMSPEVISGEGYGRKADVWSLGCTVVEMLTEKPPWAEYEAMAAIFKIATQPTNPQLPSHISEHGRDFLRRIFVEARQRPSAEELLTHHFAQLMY
Particulars: MAP3K3; 1 μM; read-out: % control.

Assay [6] deals with T6, panel of 468 kinases (Homo sapiens, UniProt Q9H4B4).
T6 construct: purchased KINOMEscan (ScanMAX) service
T6 sequence (Q9H4B4 whole entry): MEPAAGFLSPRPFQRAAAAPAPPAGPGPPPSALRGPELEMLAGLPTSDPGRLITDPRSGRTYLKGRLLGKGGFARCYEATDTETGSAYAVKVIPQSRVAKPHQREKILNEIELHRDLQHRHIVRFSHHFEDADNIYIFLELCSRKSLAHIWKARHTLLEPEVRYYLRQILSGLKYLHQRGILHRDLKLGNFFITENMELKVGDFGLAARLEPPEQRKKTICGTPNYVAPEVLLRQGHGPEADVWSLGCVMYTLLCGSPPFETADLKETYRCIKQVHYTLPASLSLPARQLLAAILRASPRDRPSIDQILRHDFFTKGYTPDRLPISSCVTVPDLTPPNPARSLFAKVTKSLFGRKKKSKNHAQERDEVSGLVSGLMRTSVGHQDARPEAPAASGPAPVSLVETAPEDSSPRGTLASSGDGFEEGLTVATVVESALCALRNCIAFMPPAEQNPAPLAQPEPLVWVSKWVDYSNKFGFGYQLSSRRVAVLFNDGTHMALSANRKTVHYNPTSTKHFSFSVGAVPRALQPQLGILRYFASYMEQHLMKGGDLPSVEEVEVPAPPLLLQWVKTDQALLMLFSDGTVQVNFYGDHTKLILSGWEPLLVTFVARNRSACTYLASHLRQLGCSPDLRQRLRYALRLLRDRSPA
Conditions: PLK3; 1 μM; read-out: % control.

T4 sequence (Q96NX5 whole entry): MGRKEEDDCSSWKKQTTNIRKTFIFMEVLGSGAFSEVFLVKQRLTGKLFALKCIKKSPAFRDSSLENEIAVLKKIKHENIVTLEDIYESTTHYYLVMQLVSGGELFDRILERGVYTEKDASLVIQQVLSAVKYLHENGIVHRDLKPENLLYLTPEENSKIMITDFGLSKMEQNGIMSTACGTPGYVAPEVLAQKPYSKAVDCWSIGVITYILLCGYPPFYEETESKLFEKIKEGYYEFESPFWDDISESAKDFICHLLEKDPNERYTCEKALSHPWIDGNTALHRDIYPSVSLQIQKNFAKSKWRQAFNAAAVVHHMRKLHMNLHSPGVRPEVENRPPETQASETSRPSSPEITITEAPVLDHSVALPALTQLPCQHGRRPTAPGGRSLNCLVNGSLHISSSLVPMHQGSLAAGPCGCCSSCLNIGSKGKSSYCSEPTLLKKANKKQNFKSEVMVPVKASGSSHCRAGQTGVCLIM
T2 sequence (Q05397 whole entry): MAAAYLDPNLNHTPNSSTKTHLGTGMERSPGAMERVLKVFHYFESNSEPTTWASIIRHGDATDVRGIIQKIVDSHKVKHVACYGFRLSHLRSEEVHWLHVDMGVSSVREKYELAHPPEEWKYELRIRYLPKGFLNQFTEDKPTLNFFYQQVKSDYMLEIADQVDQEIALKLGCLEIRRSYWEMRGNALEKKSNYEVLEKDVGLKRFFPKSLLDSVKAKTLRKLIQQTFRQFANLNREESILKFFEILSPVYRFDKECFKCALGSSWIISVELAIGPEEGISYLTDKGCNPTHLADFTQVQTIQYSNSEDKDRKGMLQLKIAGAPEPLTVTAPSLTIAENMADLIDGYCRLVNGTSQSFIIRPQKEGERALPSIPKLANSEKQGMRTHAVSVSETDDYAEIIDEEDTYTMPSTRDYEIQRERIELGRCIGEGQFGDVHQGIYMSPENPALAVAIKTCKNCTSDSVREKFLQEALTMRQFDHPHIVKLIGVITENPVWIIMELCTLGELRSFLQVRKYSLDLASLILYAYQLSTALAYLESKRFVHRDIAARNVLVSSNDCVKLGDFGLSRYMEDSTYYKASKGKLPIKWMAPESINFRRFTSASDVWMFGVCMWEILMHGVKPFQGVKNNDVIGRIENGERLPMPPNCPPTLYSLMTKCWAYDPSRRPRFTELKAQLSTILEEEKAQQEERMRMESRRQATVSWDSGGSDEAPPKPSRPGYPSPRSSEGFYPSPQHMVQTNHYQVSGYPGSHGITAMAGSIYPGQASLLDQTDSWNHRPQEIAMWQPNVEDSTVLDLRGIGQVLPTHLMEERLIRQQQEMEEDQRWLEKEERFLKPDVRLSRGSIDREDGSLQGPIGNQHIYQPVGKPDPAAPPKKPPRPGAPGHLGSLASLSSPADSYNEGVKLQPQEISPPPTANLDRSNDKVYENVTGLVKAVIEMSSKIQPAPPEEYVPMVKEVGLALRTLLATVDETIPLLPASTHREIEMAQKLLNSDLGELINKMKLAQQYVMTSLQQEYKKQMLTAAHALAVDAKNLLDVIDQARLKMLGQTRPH

In the case of `CNc1nc(Nc2ccc(S(=O)(=O)N3CCC(N4CCOCC4)CC3)cc2OC)nc2[nH]cc(Cl)c12` [Compound 12, 5-chloro-N2-(2-methoxy-4-((4-morpholinopiperidin-1-yl)sulfonyl)phenyl)-N4-methyl-7H-pyrrolo[2,3-d]pyrimidine-2,4-diamine], the remaining binding at 1 µM is 96% at panel of 468 kinases [1]; 19% on panel of 468 kinases [2]; 100% at panel of 468 kinases [3]; 96% at panel of 468 kinases [4]; 100% at panel of 468 kinases [5]; 100% at panel of 468 kinases [6].
For the compound `CNc1nc(Nc2ccc(C(=O)N3CCC(N4CCOCC4)CC3)c3c2OCO3)nc2[nH]cc(Cl)c12` [Compound 75, (7-((5-chloro-4-(methylamino)-7H-pyrrolo[2,3-d]pyrimidin-2-yl)amino)benzo[d][1,3]dioxol-4-yl)(4-morpholinopiperidin-1-yl)methanone], the remaining binding at 1 µM at panel of 468 kinases [1] is 96%; at panel of 468 kinases [2] it was 39%; at panel of 468 kinases [3], 100%; on panel of 468 kinases [4], 73%; at panel of 468 kinases [5], 43%; at panel of 468 kinases [6], 100%.
Take `CNc1nc(Nc2ccc(P3(=O)CCN(C4CCOCC4)CC3)cc2OC)nc2[nH]cc(Cl)c12` [Compound 77, 4-(4-((5-chloro-4-(methylamino)-7H-pyrrolo[2,3-d]pyrimidin-2-yl)amino)-3-methoxyphenyl)-1-(tetrahydro-2H-pyran-4-yl)-1,4-azaphosphinane 4-oxide]: the remaining binding at 1 µM at panel of 468 kinases [1] is 92%; at panel of 468 kinases [2], 33%; at panel of 468 kinases [3], 100%; on panel of 468 kinases [4] it was 65%; on panel of 468 kinases [5] it was 100%; at panel of 468 kinases [6], 96%.
